{"source": "paper PMC9006931", "about": "“Altered Response Pattern following AZD5582 Treatment of SIV-Infected, ART-Suppressed Rhesus Macaque Infants” (Journal of Virology, 2022)", "key": {"memory CD8+ T cells": {"system": "memory CD8+ T cells", "assay": "Ki67 expression by whole blood flow cytometry, memory CD8+ T cells", "format": "in vivo, rhesus macaque", "details": "for Ki67 expression in memory CD8+ T cells: AZD5582 treated infant RMs", "method": "(§1) The ncNF-κB pathway plays an important role in regulating T cell differentiation without causing broad systemic inflammation ([22]). We have previously observed a stimulatory effect on peripheral T cells following AZD5582 treatment specifically measurable through increased intracellular Ki67 expression ([17]). To further assess the effect of AZD5582 on infant RMs, flow cytometry was performed longitudinally on whole blood on the day of doses 1, 3, 6, and 9 and both 48 to 72h and 7 days after each of these doses. These time points were selected to allow longitudinal evaluation while remaining within blood volume constraints.\n(§2) Multicolor flow cytometric analysis was performed on whole blood (WB) or cell suspensions using predetermined optimal concentrations of the following fluorescently conjugated monoclonal antibodies (MAbs). For WB T cell analysis the following MAbs were used: CD3-allophycocyanin (APC)-Cy7 (clone SP34-2), CD95-phycoerythrin (PE)-Cy5 (clone DX2), Ki67-AF700 (clone B56), HLA-DR-peridinin chlorophyll protein (PerCP)-Cy5.5 (clone G46-6), CCR7-fluorescein isothiocyanate (FITC) (clone 150503), CCR5-APC (clone 3A9), CD62L (clone SK11), and CD45-RA-PE-Cy7 (clone L45) from BD Biosciences; CD8-BV711 (clone RPA-T8), CD4-BV650 (clone OKT4), and PD-1-BV421 (clone EH12.2H7) from BioLegend; and CD28-ECD (clone CD28-2) from Beckman-Coulter. Flow cytometric acquisition and analysis of samples were performed on at least 100,000 events on an AURORA flow cytometer driven by the SpectroFlo software package (Cytek). Analyses of the acquired data were performed using FlowJo version 10.0.4 software (TreeStar)."}, "[1]": {"system": "NF-κB associated genes in CD4+ T cells", "assay": "RNA-Seq of peripheral CD4+ T cells pre- and post-AZD5582", "format": "in vivo, rhesus macaque", "method": "Treatment with AZD5582 in SIV-infected, ART-suppressed adult RMs upregulates key genes associated with signaling through the ncNF-kB pathway, rather than the canonical NF-κB (cNF-kB) pathway in CD4^+ T cells ([17]). Here, we performed RNA-Seq in total CD4^+ T cells isolated from the peripheral blood of AZD5582-treated infant macaques at baseline (pre-dose 1) and the end of the treatment period (post-dose 10).\nRNA-sequencing (RNA-seq) analysis was conducted at the Yerkes Nonhuman Primate Genomics Core Laboratory (http://www.yerkes.emory.edu/nhp_genomics_core/). RNA was purified from 50,000 peripheral blood-derived CD4^+ T cells purified by negative selection and lysed in 350 μL of RLT buffer at −80°C, using Qiagen Micro RNEasy columns, and RNA quality was assessed using an Agilent Bioanalyzer. Following this, 2 ng of total RNA was used as input for mRNA amplification using 5′ template switch PCR with the Clontech SMART-seq v4 Ultra Low Input RNA kit according to the manufacturer’s instructions. Amplified mRNA was fragmented and appended with dual-index bar codes using Illumina NexteraXT DNA library preparation kits. Libraries were validated by capillary electrophoresis on an Agilent 4200 TapeStation, pooled and sequenced on an Illumina HiSeq 3000 using 100-bp single reads at an average depth of 25 million reads. Alignment was performed using STAR version 2.7.3a ([36]) and transcripts were annotated using a composite reference of rhesus macaque (Mmul10 Ensembl release 100).\nStatistical analyses were performed using GraphPad Prism Software (v.7 or v.8). P ≤ 0.05 was considered statistically significant. To compare differences in pre-ART viral loads between experimental groups in Fig. 2D and SIV DNA levels in Fig. 3C a two-sided Mann-Whitney test was used. To test the statistical significance observed in Ki67 expression on memory CD4^+ and CD8^+ T cells in Fig. 3B, BIRC3, NFKB2 gene expression in Fig. 6A and B, and SIV RNA expression in Fig. 6C and D. A Wilcoxon matched-pairs signed-rank test was used. For RNA-seq analysis in Fig. 5, RNA-seq data were mapped to the NCBI Mmul10 assembly of the Indian rhesus macaque genome, and alignment was performed with STAR (v.2.7.3a) using Ensemble release 100 annotations as a transcript annotation and splice junction reference. Transcript abundance estimates were calculated internal to the STAR aligner using the algorithm of htseq-count ([37]). DESeq2 ([38]) was used for normalization and differential expression analysis. Gene set enrichment analysis ([39]) (GSEA), performed with the GSEA desktop module (available at https://www.broadinstitute.org/gsea/) and the Molecular Signatures Database (MSigDB), was used to determine pathway/gene set enrichment. Heat maps, volcano plots, and principal-component analysis plots were generated with the R (v 3.6.0) package ggplot2."}, "SIVmac239": {"system": "SIVmac239", "design": "method as in PMID 31969707", "details": "adult RMs; cited from earlier work"}, "[2]": {"system": "SIV gag DNA in CD4+ T cells", "assay": "Cell-associated SIV DNA / RNA in CD4+ T cells", "format": "in vivo", "details": "before dose 1, 3dp- and 2wp-AZD5582 treatment, infant RMs", "method": "Plasma viral quantification was performed as described previously ([12]). The frozen cell pellet was lysed with proteinase K (100 μg/mL in 10 mM Tris-HCl pH 8) for 1h at 56°C. Quantification of SIVmac gag DNA was performed by quantitative PCR (qPCR) using the 5′ nuclease (TaqMan) assay with an ABI7500 system (PerkinElmer Life Sciences). The sequence of the forward primer for SIVmac gag was 5′-[…]-3′, the reverse primer sequence was 5′-[…]-3′, and the probe sequence was 5′-6-carboxyfluorescein (FAM)-[…]-6-carboxytetramethylrhodamine (TAMRA)-3′. 7.5 μL of cell lysate were mixed in a 50 μL reaction mixture containing 1× Platinum Buffer, 3.5 mM MgCl2, 0.2 mM dNTP, primers 200 nM, probe 150 nM, and 2U Platinum Taq. For cell number quantification, quantitative PCR was performed simultaneously for monkey albumin gene copy number. The sequence of the forward primer for albumin was F 5′-[…]-3′; the reverse primer sequence was 5′- ATGGTCGCCTGTTCACCAA-3′ and the probe sequence was 5′-[…]-3′ ([34]). The reactions were performed on a 7500 real-time PCR system (Applied Biosystems) with the following thermal program: 10 min at 95°C, followed by 40 cycles of denaturation at 95°C for 15 s and annealing at 60°C for 1 min."}, "memory CD4+ T cells": {"system": "memory CD4+ T cells", "assay": "Ki67 expression by whole blood flow cytometry, memory CD4+ T cells", "format": "in vivo, rhesus macaque", "details": "for Ki67 expression in memory CD4+ T cells: AZD5582 treated infant RMs", "method": "as §1, §2"}, "[3]": {"details": "before the increase seen after dose 1"}, "[4]": {"details": "baseline (immediately before doses 1, 3, 6, 9)"}, "[5]": {"details": "relative to three baseline measurements, treated infant RMs"}, "[6]": {"details": "infant RMs, CD4+ T cells, post-dose 10 vs pre-dose 1"}}}
{"smiles": "CN[C@@H](C)C(=O)N[C@H](C(=O)N1CCC[C@H]1C(=O)N[C@H]1c2ccccc2C[C@H]1OCC#CC#CCO[C@@H]1Cc2ccccc2[C@@H]1NC(=O)[C@@H]1CCCN1C(=O)[C@@H](NC(=O)[C@H](C)NC)C1CCCCC1)C1CCCCC1", "note": "[AZD5582]", "values": [{"measurement": "Mean Ki67 expression in peripheral memory CD8+ T cells", "setting": "memory CD8+ T cells; 3-days post-AZD5582 (doses 1, 3, 6, 9), P = 0.03", "result": 26.5, "unit": "%"}, {"measurement": "Ki67 expression in memory CD8+ T cells", "setting": "memory CD8+ T cells; 7 days following dose 1", "result": 46.7, "unit": "%"}, {"measurement": "Ki67 expression in memory CD8+ T cells", "setting": "memory CD8+ T cells; [3]", "result": 5.1, "unit": "%"}, {"measurement": "Mean Ki67 expression in peripheral memory CD8+ T cells", "setting": "memory CD8+ T cells; [4]", "result": 18.2, "unit": "%"}, {"measurement": "Average increase of Ki67 expression in memory CD8+ T cells after dose 1", "setting": "memory CD8+ T cells; [5]", "result": 23.3, "unit": "%"}, {"measurement": "BIRC3 and BIRC5 expression in CD4+ T cells", "setting": "[1]; AZD5582 treated infant and adult RMs", "result": "most significantly upregulated"}, {"measurement": "Genes downregulated following AZD5582 treatment", "setting": "[1]; [6]", "result": 176, "unit": "genes"}, {"measurement": "Genes upregulated following AZD5582 treatment", "setting": "[1]; [6]", "result": 855, "unit": "genes"}, {"measurement": "Genes differentially expressed following AZD5582 treatment", "setting": "[1]; infant RMs, CD4+ T cells, post-dose 10 vs pre-dose 1, FDR 5%, linear fold change 50%", "result": "1,031 genes"}, {"measurement": "Expression of RELB, NFKB2 and NFKBIA in CD4+ T cells", "setting": "[1]; treated infant RMs", "result": "did not observe increased expression"}, {"measurement": "SIV reactivation, events >60 copies/ml", "setting": "SIVmac239", "result": "64/140"}, {"measurement": "SIV reactivation, events >60 copies/ml (percent)", "setting": "SIVmac239", "result": 46, "unit": "%"}, {"measurement": "SIV reactivation, per animal (RMs with on-ART viremia)", "setting": "SIVmac239", "result": "5/9"}, {"measurement": "SIV reactivation, per animal (percent)", "setting": "SIVmac239", "result": 56, "unit": "%"}, {"measurement": "Cell-associated SIV RNA in peripheral CD4+ T cells", "setting": "[2]", "result": "remained stable"}, {"measurement": "Mean Ki67 expression in peripheral memory CD4+ T cells", "setting": "memory CD4+ T cells; 3-days post-AZD5582 (doses 1, 3, 6, 9), P = 0.02", "result": 28.4, "unit": "%"}, {"measurement": "Ki67 expression in memory CD4+ T cells", "setting": "memory CD4+ T cells; 7 days following dose 1", "result": 46.9, "unit": "%"}, {"measurement": "Ki67 expression in memory CD4+ T cells", "setting": "memory CD4+ T cells; [3]", "result": 8.7, "unit": "%"}, {"measurement": "Other markers of activation, including HLA-DR and PD-1", "setting": "memory CD4+ T cells; T cells following AZD5582 treatment, infant RMs", "result": "did not observe increases"}, {"measurement": "Mean Ki67 expression in peripheral memory CD4+ T cells", "setting": "memory CD4+ T cells; [4]", "result": 21.0, "unit": "%"}, {"measurement": "Average increase of Ki67 expression in memory CD4+ T cells after dose 1", "setting": "memory CD4+ T cells; [5]", "result": 24.3, "unit": "%"}]}
